# Measured values reported in US20260243779A1, “METHOD FOR EVALUATING RECEPTOR-TYPE TYROSINE KINASE ACTIVITY” (The University of Osaka, priority 2023, published 2026).
# Tests used:
# EGFR [1] = biological target: T1, EGFR (Homo sapiens, UniProt P00533); assay: Drug evaluation / FDA-approved drug library screening using MSDδt=500 ms ratio before and after EGF addition, CHO cells expressing EGFR-GFP; settings: for MSDδt=500 ms ratio compared with the control: compound addition changed MSDδt=500 ms in an EGF-independent manner; for hit in primary screening (MSDδt=500 ms ratio equal to or greater than threshold = control average + 3×standard deviation): FDA-approved drug library (1134 drugs), EGF 60 nM, among the 53 hit compounds
# Description: Single-molecule imaging was performed in the same way as above, except that the gefitinib-untreated CHO cell was used instead of the gefitinib-treated CHO cell as the control, and then the MSDδt=500 ms ratio was calculated.
# Single-molecule imaging was also performed for the control in order to determine the threshold. Single-molecule imaging for the control was performed in the same way as above, except that the candidate compound was not placed in the wells.
# Compounds that are within a significance level of 5% and increased in a concentration-dependent manner were selected, from which the compounds that are difficult to be measured due to coloration or cause the cell damage were excluded.
# EGFR [2] = biological target: T1, EGFR; assay: EGFR immunostaining, subcellular localization of the EGFR; format: cell-based; settings: EGF not necessary
# ErbB3 = ErbB3 (Homo sapiens, UniProt P21860); assay: Single-molecule imaging of CHO cell expressing ErbB3-GFP, MSD ratio HRG-treated/untreated; format: cell-based; settings: drug 0.1 to 10,000 nM; HRG saturated (>30 nM); concentration-dependent; FIG. 8A
# Description: FIGS. 8A and 8B show the relationship between the drug (Sapitinib or Afaitinib) concentration and the receptor diffusion dynamics (MSDδt=500 ms ratio) when the HRG concentration is saturated (>30 nM); here, FIG. 8A is the result for Sapitinib and FIG. 8B is the result for Afaitinib. […] Therefore, it was confirmed that the effect of the phosphorylation inhibitor can be estimated from the change in the molecular dynamics by measuring the diffusion dynamics and calculating the ratio of the MSD values, even for the RTK receptor other than the EGFR.
# T1 sequence (P00533 25-1210): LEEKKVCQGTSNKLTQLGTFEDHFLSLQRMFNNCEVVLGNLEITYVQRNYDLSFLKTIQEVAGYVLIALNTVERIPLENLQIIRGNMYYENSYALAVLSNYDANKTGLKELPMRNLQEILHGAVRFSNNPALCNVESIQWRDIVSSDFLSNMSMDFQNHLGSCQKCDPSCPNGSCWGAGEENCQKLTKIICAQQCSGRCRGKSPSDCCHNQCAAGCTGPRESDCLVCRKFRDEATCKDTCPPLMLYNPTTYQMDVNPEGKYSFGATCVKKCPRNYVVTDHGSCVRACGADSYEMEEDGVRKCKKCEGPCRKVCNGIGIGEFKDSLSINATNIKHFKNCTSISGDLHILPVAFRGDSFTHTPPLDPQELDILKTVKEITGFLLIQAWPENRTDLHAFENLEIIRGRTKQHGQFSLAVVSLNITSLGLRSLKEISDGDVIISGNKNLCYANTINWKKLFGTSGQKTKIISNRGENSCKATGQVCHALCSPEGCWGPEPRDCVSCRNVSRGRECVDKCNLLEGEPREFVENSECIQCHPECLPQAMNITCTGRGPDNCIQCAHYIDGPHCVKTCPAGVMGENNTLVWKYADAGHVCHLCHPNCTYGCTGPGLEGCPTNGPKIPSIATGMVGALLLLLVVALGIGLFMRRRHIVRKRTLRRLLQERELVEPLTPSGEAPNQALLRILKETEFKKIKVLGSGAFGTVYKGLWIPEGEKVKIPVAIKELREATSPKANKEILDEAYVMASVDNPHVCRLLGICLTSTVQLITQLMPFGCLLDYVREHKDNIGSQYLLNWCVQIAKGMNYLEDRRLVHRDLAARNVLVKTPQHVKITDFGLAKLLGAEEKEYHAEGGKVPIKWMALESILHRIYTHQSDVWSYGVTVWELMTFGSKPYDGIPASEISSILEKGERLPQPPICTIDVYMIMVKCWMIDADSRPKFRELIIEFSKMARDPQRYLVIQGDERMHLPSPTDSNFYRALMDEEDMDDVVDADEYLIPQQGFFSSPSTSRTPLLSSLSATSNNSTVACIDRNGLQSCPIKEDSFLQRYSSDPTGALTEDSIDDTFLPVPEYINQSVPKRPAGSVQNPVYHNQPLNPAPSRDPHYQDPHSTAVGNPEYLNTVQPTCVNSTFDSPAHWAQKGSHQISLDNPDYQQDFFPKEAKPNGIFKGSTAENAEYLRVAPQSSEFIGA
# Sequence of ErbB3 (P21860 20-1342): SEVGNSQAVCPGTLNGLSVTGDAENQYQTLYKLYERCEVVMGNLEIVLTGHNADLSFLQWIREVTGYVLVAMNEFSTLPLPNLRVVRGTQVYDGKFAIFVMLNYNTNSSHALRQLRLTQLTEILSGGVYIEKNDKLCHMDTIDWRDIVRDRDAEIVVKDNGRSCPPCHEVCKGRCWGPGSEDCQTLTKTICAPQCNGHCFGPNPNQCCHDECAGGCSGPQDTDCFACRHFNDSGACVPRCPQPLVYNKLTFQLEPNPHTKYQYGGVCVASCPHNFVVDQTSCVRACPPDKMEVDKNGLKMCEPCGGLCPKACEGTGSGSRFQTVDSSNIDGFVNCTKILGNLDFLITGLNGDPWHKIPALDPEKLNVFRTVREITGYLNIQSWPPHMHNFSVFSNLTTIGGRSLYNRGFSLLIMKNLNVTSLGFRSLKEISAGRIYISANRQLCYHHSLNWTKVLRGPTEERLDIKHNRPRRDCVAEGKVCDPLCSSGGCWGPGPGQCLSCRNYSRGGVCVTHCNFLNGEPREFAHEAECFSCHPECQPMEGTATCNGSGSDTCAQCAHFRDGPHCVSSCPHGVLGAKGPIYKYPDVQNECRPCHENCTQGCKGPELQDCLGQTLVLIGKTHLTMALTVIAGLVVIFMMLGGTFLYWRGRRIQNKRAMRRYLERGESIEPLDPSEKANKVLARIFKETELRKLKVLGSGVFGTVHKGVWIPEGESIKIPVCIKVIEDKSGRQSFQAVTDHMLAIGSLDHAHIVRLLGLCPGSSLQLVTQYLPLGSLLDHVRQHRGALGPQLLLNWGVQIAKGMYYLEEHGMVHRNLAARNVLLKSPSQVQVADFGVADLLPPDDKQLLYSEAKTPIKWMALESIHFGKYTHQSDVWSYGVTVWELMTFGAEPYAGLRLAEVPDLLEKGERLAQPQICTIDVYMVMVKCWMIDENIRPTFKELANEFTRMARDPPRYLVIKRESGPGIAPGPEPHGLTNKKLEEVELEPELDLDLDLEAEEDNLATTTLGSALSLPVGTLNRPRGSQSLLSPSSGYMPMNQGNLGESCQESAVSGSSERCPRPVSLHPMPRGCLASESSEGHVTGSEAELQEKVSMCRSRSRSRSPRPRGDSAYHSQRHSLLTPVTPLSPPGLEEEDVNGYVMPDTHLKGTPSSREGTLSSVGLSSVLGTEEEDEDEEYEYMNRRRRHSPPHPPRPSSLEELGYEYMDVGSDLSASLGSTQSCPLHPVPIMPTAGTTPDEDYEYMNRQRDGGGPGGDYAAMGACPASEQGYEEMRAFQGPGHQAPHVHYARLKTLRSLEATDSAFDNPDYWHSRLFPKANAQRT
SMILES,MSDδt=500 ms ratio compared with the control (EGFR [1]),effect on the subcellular localization of the EGFR (EGFR [2]),hit in primary screening (MSDδt=500 ms ratio equal to or greater than threshold = control average + 3×standard deviation) (EGFR [1]),"effect on reduction of receptor mobility (MSDδt=500 ms ratio) by HRG, ErbB3 (ErbB3)"
Oc1c(Br)cc(Br)c2cccnc12 [Broxyquinoline],significantly different from the control,EGFR was incorporated into the cell,–,–
COc1cccc2c1C(=O)c1c(O)c3c(c(O)c1C2=O)C[C@@](O)(C(C)=O)C[C@@H]3O[C@H]1C[C@H](N)[C@H](O)[C@H](C)O1 [Daunorubicin],–,–,included,–
O=C(OCC(O)CO)c1ccccc1Nc1ccnc2cc(Cl)ccc12 (stereo not drawn) [Glafenine],significantly different from the control,EGFR was incorporated into the cell,–,–
Cc1cn(-c2cc(NC(=O)c3ccc(C)c(Nc4nccc(-c5cccnc5)n4)c3)cc(C(F)(F)F)c2)cn1 [Nilotinib],significantly different from the control,EGFR was incorporated into the cell,–,–
C#Cc1cccc(Nc2ncnc3cc(OCCOC)c(OCCO)cc23)c1 [OSI-420],–,–,included,–
CNC(=O)CN1CCC(Oc2cc3c(Nc4cccc(Cl)c4F)ncnc3cc2OC)CC1 [Sapitinib],–,–,–,inhibited the reduction of the receptor mobility
